{"source": "ChEMBL document CHEMBL1201862", "about": "“PubChem BioAssay data set” (2004)", "key": {"HT-1080": {"tested_on": "HT-1080", "assay": "HT1080 cell viability loss – fluorescence readout (AID 620)", "assay_type": "functional, cell-based", "details": "Homo sapiens"}, "HEK293": {"tested_on": "HEK293", "assay": "EBV LMP1 TES2 canonical NF-kB signalling blockers – cell-based, HEK293, luciferase, cherry-pick, dose response (AID 588343)", "assay_type": "functional", "details": "Homo sapiens"}, "[1]": {"target": "Luciferin 4-monooxygenase (Photinus pyralis, UniProt P08659)", "sequence (P08659 whole entry)": "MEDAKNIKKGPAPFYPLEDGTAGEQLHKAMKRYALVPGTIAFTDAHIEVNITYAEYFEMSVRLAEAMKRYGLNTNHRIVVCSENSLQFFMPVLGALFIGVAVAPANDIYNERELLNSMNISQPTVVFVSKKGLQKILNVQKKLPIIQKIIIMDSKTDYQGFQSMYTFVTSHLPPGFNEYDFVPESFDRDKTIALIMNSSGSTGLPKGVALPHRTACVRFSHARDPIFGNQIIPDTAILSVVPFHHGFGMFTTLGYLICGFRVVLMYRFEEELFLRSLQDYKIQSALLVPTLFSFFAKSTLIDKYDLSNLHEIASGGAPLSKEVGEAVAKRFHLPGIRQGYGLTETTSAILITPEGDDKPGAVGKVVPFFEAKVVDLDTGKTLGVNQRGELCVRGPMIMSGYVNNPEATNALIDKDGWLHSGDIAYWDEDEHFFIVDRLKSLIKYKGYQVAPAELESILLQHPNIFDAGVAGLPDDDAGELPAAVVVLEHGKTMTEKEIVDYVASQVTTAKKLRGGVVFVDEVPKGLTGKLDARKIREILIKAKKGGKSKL", "assay": "Counter Screen for Luciferase-based Assay Positives. [Related pubchem assays: 620, 618, 411 ]"}, "Hexokinase HKDC1": {"target": "T1, Hexokinase HKDC1 (Homo sapiens, UniProt Q2TB90)", "T1 sequence (Q2TB90 whole entry)": "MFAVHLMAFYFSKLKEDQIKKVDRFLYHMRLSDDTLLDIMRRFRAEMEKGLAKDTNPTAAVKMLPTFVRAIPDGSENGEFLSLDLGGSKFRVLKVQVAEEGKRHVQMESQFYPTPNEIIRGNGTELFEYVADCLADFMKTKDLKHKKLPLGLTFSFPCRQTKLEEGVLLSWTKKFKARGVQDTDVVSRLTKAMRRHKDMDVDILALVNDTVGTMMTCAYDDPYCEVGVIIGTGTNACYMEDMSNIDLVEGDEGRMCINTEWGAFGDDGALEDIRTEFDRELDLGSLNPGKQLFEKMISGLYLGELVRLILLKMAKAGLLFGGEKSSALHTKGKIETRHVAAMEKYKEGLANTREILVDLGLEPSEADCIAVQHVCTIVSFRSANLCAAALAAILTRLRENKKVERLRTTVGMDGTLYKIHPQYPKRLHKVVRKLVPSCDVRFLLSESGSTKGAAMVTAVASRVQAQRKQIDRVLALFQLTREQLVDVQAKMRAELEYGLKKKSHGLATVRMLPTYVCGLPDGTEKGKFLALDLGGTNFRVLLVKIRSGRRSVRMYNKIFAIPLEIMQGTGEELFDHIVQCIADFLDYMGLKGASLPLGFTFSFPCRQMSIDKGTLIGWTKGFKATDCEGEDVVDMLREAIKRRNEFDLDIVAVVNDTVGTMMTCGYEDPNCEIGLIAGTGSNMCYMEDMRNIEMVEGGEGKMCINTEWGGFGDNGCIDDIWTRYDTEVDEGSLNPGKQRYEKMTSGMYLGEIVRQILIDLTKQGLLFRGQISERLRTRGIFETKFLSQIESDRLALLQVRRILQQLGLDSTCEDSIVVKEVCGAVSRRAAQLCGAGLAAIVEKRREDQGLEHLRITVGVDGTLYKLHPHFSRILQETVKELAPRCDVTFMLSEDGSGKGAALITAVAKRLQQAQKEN", "assay": "SAR analysis of small molecule inhibitors of hexokinase domain containing I (HKDC1). [Related pubchem assays (depositor defined):AID493160, AID493190]", "assay_type": "functional"}, "Hexokinase-1": {"target": "T2, Hexokinase-1 (Homo sapiens, UniProt P19367)", "T2 sequence (P19367 whole entry)": "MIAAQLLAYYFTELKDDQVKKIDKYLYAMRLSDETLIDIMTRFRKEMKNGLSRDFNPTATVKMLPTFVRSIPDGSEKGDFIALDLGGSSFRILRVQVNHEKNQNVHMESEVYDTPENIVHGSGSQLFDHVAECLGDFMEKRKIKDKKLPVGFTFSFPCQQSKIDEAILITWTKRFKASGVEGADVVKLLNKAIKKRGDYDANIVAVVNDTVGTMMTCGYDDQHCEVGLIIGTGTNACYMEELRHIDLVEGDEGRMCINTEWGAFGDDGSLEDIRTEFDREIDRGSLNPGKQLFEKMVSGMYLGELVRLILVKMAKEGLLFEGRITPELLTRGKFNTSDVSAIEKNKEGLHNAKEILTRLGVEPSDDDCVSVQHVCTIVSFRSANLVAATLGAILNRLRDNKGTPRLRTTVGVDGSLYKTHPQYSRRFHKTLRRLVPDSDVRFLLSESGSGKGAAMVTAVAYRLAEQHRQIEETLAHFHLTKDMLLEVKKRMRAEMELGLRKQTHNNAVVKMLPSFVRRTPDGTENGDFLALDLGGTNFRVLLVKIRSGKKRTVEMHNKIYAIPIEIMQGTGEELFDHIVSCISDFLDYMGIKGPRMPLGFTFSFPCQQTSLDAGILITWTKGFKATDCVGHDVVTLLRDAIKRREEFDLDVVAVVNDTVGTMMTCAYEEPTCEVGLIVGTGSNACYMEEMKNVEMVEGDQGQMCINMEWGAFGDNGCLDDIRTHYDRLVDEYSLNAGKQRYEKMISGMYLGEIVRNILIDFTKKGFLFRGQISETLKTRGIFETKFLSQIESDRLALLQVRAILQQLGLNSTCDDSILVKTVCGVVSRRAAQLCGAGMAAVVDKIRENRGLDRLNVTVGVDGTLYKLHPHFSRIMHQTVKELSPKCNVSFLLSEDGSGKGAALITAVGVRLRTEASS", "assay": "SAR analysis of small molecule inhibitors of hexokinase domain containing I (HKDC1) in the hexokinase 1 selectivity assay. [Related pubchem assays (depositor defined):AID493160, AID493190]", "assay_type": "functional"}, "[2]": {"target": "FAD-linked sulfhydryl oxidase ALR (Homo sapiens, UniProt P55789)", "sequence (P55789 whole entry)": "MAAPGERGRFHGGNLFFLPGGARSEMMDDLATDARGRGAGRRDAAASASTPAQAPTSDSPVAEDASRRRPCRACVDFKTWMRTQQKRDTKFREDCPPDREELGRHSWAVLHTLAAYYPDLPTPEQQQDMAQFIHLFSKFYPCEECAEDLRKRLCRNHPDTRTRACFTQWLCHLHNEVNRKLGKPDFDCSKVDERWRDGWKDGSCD", "assay": "ALR-catalysed DTT oxidation blockers – biochemical, H2O2 detection, luminescence, cherry-pick, dose response (AID 493248)"}, "[3]": {"target": "T3, Heat shock factor protein 1 (Mus musculus, UniProt P38532)", "T3 sequence (P38532 whole entry)": "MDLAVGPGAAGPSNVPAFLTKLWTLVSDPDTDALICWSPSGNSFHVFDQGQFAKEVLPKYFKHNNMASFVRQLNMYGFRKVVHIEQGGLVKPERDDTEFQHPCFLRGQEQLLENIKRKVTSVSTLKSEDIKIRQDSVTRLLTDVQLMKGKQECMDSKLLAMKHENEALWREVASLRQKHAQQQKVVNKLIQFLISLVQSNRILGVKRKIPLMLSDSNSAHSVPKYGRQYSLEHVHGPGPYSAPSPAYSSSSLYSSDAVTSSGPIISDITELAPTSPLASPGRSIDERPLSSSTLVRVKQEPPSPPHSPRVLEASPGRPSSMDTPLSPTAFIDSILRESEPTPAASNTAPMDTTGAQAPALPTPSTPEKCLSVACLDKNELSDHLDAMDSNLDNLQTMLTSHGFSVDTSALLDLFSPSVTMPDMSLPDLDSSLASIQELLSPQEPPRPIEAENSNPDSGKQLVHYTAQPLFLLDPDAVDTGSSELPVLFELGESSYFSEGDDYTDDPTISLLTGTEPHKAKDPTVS", "assay": "decrease of HSF1-responsive luciferase luminescence – cell-based, NIH3T3, dose retest, confirmation (AID 2382);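 note: NIH3T3 fibroblasts with HSF1-driven luciferase reporter stressed by proteasome inhibitor MG132; luminescence from HSF1-driven luciferase expression after 8 hours of MG132 stress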", "assay_type": "functional"}, "[4]": {"target": "Luciferin 4-monooxygenase (Photuris pensylvanica, UniProt Q27757)", "sequence (Q27757 whole entry)": "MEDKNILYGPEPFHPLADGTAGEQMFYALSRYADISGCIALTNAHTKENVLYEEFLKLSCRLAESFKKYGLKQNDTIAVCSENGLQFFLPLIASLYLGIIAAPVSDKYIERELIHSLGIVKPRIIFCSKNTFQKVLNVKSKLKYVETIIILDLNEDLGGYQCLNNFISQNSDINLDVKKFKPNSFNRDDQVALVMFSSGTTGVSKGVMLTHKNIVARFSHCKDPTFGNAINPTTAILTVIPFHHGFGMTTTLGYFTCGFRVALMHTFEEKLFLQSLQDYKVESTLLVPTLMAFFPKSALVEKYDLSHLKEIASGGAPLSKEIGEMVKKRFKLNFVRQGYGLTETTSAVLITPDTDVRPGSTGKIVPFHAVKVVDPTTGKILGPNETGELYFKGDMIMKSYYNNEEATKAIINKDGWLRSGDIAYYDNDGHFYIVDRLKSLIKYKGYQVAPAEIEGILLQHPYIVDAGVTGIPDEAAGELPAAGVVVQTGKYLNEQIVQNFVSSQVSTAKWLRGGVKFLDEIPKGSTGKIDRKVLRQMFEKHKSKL", "assay": "inhibition of Cell Titer Glo luciferase signal – biochemical, luminescence, cherry-picks, counter-screen for HSF-1 reporter inhibitor project, dose response (AID 588847)"}, "[5]": {"target": "T4, High affinity choline transporter 1 (Homo sapiens, UniProt Q9GZV3)", "T4 sequence (Q9GZV3 whole entry)": "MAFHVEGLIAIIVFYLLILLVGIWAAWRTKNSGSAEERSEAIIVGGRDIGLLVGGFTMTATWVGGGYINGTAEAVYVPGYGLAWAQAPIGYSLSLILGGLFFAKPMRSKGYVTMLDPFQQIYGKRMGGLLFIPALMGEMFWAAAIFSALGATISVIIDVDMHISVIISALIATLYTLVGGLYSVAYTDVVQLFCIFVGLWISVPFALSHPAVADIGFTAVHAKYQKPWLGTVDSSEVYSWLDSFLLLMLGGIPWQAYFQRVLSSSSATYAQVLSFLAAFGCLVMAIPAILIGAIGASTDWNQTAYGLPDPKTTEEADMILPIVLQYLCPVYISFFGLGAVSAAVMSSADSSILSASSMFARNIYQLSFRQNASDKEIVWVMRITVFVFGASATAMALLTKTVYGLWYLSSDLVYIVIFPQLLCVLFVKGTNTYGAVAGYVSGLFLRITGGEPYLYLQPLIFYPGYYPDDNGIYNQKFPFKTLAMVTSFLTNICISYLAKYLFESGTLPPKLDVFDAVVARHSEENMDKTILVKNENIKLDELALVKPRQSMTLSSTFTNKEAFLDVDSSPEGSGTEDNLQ", "assay": "human choline transporter blockers, potency – cell-based, 5-point CRC, membrane potential dye, dose response (AID 504840)", "assay_type": "functional"}, "MDCK": {"tested_on": "MDCK", "assay": "antiviral activity against H1N1 influenza, dose response, cell-based, strain KY136 (AID 540257)", "assay_type": "functional", "details": "Canis lupus familiaris"}, "Vero": {"tested_on": "Vero", "assay": "cells", "assay_type": "functional, cell-based", "details": "Chlorocebus sabaeus"}, "[6]": {"assay": "viability of uninfected HEp-2 cells – cell-based, HTS, cytotoxicity control for RSV inhibitor project, dose response (AID 2410)", "assay_type": "functional", "details": "human respiratory syncytial virus"}}, "note": "The source made the active and inactive calls.", "data": [{"smiles": "Cc1nc(Nc2nc3ccccc3o2)nc2c1CCC2", "values": [{"measurement": "EC50", "setting": "HT-1080", "value": "> 50 µM (not active)"}, {"measurement": "AC50", "setting": "HEK293", "value": "2.54 µM (active)"}, {"measurement": "EC50", "setting": "[1]", "value": "5.88 µM (active)"}]}, {"smiles": "N#Cc1ccc(CSc2nnc(NC(=O)c3ccc(O)nc3)s2)cc1", "values": [{"measurement": "IC50", "setting": "Hexokinase HKDC1", "value": "> 80 µM (inactive)"}, {"measurement": "IC50", "setting": "Hexokinase-1", "value": "> 80 µM (inactive)"}, {"measurement": "AC50", "setting": "[2]", "value": "0.679 µM (active)"}]}, {"smiles": "CC(C)(C)c1ccc(/C=N/Nc2cccc(C(=O)O)c2)cc1", "values": [{"measurement": "EC50", "setting": "[3]", "value": "< 0.16 µM (active)"}, {"measurement": "AC50", "setting": "[4]", "value": "3.37 µM (active)"}]}, {"smiles": "O=S(=O)(Cc1cc(Cl)nc(-c2cccnc2)n1)c1ccccc1", "values": [{"measurement": "IC50", "setting": "[5]", "value": "10.5 µM (active)"}, {"measurement": "IC50", "setting": "MDCK", "value": "> 100 µM (active)"}]}, {"smiles": "Cc1cccc(NC(=O)CSc2nc3ccccc3nc2N2CCCC2)c1", "values": [{"measurement": "IC50", "setting": "Vero", "value": "> 25 µM (active)"}, {"measurement": "CC50", "setting": "[6]", "value": "13.7 µM (active)"}]}]}
